# Tests used:
# [1] = Veliparib spatial distribution by MALDI-MSI in TNBC xenograft tumor and muscle sections; format: in vivo, beige SCID mice
# Method: Thirty-nine mice were euthanized approximately 3 h after the last dose of veliparib and 24 h after the last dose of carboplatin; two mice used in the DCE-MRI pilot were euthanized 1.5 h after single-dose administration of veliparib and carboplatin (Fig. 1). Bilateral xenograft tumors and liver and muscle (quadriceps) tissues were harvested. Tissues were cut into three pieces and either embedded in optimum cutting temperature (OCT) formulation or were directly snap frozen in liquid-nitrogen-cooled isopentane and stored at − 80 °C until analysis. […] A separate fresh-frozen portion of each tissue per animal was ground for quantification of veliparib and carboplatin by LC-MS. […]
# Heterogeneity of drug distribution of veliparib in the tissues evaluated by MALDI-MSI was assessed by comparing the relative standard deviation in the whole tissue of muscle and tumor cells, and by comparing the mean pixel intensity of each immunohistochemically (IHC)-defined region of interest capturing the whole tumor region, and regions of cellularity/necrosis using one-way ANOVA. […]
# By spiking different concentrations of veliparib on placebo treated mouse TNBC xenograft tissues, a rough estimate of the detection range of veliparib was determined to be 100 fmol-100 pmol absolute drug amount, Figure S2 left) with saturation of the signal occurring above 1 nmol/ μL. […]
# PARP = conditions: read-out: PARP trapping IC50; cited from earlier work
# [2] = Veliparib plasma and tumor PK model (NONMEM) in xenograft mice; conditions: for Kp: beige SCID (Fox Chase)
# Method: PK-analyses were performed using nonlinear mixed-effects modeling (NONMEM VII Software, ICON Development Solutions, San Antonio, TX, USA), using the first-order conditional estimation with interaction (FOCEI) method. The model-building procedure was guided by the likelihood ratio test, diagnostic plots and internal model validation techniques, including visual predictive checks and bootstrap analysis. The effect of dose, concentration and cell source on TNBC xenograft tissue concentrations was assessed. The variability between animals was assessed using two components: one consistent difference common to all TNBC xenograft tissue samples from left and right mouse tumor and one mouse-specific difference (RRES) to understand the inter-individual and intra-individual variability.
# Intra-animal error tumor 28% 21% 19%
# proportional residual error plasma 13% 42% 8%
# proportional residual error tumor 23% 19% 7%
# proportional residual error plasma 41% 22% 9%
structure (smiles),measurement,setting,value
C[C@]1(c2nc3c(C(N)=O)cccc3[nH]2)CCCN1 [veliparib],Ion intensity tumor/muscle (RSE %),[1]; cellular tumors (ROI),1.01 (85%)
same,Ion intensity tumor/muscle (RSE %),[1]; necrotic tumors (ROI),1.63 (70%)
same,IC50,PARP,57.4 µM
same,Kp,"[2]; mouse, tumor (HCC70 xenograft), oral, Penetration from plasma to xenograft tumor (ratio, RPT), HCC70 xenografts",0.75
same,Kp,"[2]; mouse, tumor (MDA-MB-231 xenograft), oral, Penetration from plasma to xenograft tumor (ratio, RPT), MDA-MB-231 xenografts",0.36
same,Kp,"[2]; mouse, tumor (MDA-MB-436 xenograft), oral, Penetration from plasma to xenograft tumor (ratio, RPT), MDA-MB-436 xenografts",0.46
same,Kp,"[2]; mouse, tumor (TNBC xenografts), oral, Veliparib transferred from plasma to TNBC xenografts, across the three xenograft types",0.35 to 0.74
same,Km,"[2]; beige SCID, mouse, plasma, oral",26.2 µg/mL
same,Interindividual variability on F plasma,[2]; mouse PK model,13%
same,Interindividual variability on tumor penetration (between tumors in different animals),[2]; mouse PK model,37%
same,Intra-animal variability tumor (within the tumor sections of an animal),[2]; mouse PK model,28%
same,Q tumor,[2]; mouse PK model,0.0694 mL/h
same,V,[2]; mouse plasma PK model,10.1 mL
same,V2,[2]; mouse plasma PK model,0.0168 mL
same,Vmax,[2]; mouse plasma PK model,1.86 mL/h
same,KA,"[2]; mouse plasma PK model, oral gavage",2.11 h⁻¹
same,"KPT, rate of transfer from plasma to tumor",[2]; mouse tumor PK model,900 mL/h

# From article PMC5594551, “Heterogeneous drug penetrance of veliparib and carboplatin measured in triple negative breast tumors” (Breast Cancer Research : BCR, 2017)
